What was measured:
in vitro = settings: human, uninfected MT-4 cells, CC50 (nM), same protocol as Test A, CellTiter-Glo
How it was run: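 Cytoprotection read-out: CellTiter-Glo chemiluminescence after 5 days at 37 °C of HIV-IIIb-infected MT-4 cells (m.o.i. 0.003) with compound in 10-point 3-fold dilutions, quadruplicate, 10% FBS. Cytotoxicity (CC50) measured identically without virus.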

HIV-IIIb = test: Test A: Antiviral assay in MT4 cells; format: cell-based, HIV-1; settings: MT-4 cells infected with HIV-IIIb, 5 days, CellTiter-Glo; for inhibition at 2 µM: Human immunodeficiency virus 1, IIIB, MT4, 120 h, read-out: % inhibition at 2 μM, percent inhibition of virus-induced cell killing, from dose response curve at 2 uM drug

| Compound | CC50 at 5 days (in vitro) [nM] | inhibition at 2 µM (HIV-IIIb) [%] | % inhibition at 2 μM (HIV-IIIb; percent inhibition of virus-induced cell killing, from dose response curve at 2 uM drug) [%] |
| --- | --- | --- | --- |
| O=C(Cn1nc(C(F)F)c2c1C(F)(F)C1CC21)N[C@@H](Cc1cc(F)cc(F)c1)c1ncncc1-c1cnc2[nH]ccc2c1 (stereo partly drawn) [Example 172D, N—((S)-1-(5-(1H-pyrrolo[2,3-b]pyridin-5-yl)pyrimidin-4-yl)-2-(3,5-difluorophenyl)ethyl)-2-(3-(difluoromethyl)-5,5-difluoro-3b,4,4a,5-tetrahydro-1H-cyclopropa[3,4]cyclopenta[1,2-c]pyrazol-1-yl)acetamide] | 22100 | 104 |  |
| NC(=O)c1cc(-c2cccnc2[C@H](Cc2cc(F)cc(F)c2)NC(=O)[C@@H]2CCCN2)ccc1F [Example 175, (S)—N—((S)-1-(3-(3-carbamoyl-4-fluorophenyl)pyridin-2-yl)-2-(3,5-difluorophenyl)ethyl)pyrrolidine-2-carboxamide] | > 53000 | 1 |  |
| O=C(Cn1nc(C(F)F)c2c1C(F)(F)C1CC21)N[C@@H](Cc1cc(F)cc(F)c1)c1ncncc1-c1cnc2[nH]ncc2c1 (stereo partly drawn) [Example 176C, N—((S)-1-(5-(1H-pyrazolo[3,4-b]pyridin-5-yl)pyrimidin-4-yl)-2-(3,5-difluorophenyl)ethyl)-2-(3-(difluoromethyl)-5,5-difluoro-3b,4,4a,5-tetrahydro-1H-cyclopropa[3,4]cyclopenta[1,2-c]pyrazol-1-yl)acetamide] | 46500 | 59 |  |
| NC(=O)c1cc(-c2cccnc2[C@H](Cc2cc(F)cc(F)c2)NC(=O)[C@@H]2C[C@H](c3ccccc3)CN2)ccc1F [Example 177, (2S,4R)—N—((S)-1-(3-(3-carbamoyl-4-fluorophenyl)pyridin-2-yl)-2-(3,5-difluorophenyl)ethyl)-4-phenylpyrrolidine-2-carboxamide] | 51700 | 0 |  |
| NC(=O)c1cc(-c2cccnc2[C@H](Cc2cc(F)cc(F)c2)NC(=O)[C@@H]2C[C@@H](O)CN2)ccc1F [Example 178, (2S,4R)—N—((S)-1-(3-(3-carbamoyl-4-fluorophenyl)pyridin-2-yl)-2-(3,5-difluorophenyl)ethyl)-4-hydroxypyrrolidine-2-carboxamide] | > 53000 | 0 |  |
| CCOc1nn(CC(=O)N[C@@H](Cc2cc(F)cc(F)c2)c2ncccc2-c2ccc(F)c(C(N)=O)c2)c2c1CCCC2 [Example 179C, (S)-5-(2-(2-(3,5-difluorophenyl)-1-(2-(3-ethoxy-4,5,6,7-tetrahydro-1H-indazol-1-yl)acetamido)ethyl)pyridin-3-yl)-2-fluorobenzamide] | 22300 | 52 |  |
| NC(=O)c1cc(-c2cncnc2[C@H](Cc2cc(F)cc(F)c2)NC(=O)Cn2nc(C(F)F)c3c2C(F)(F)C2CC32)ccc1F (stereo partly drawn) [Example 180, 5-(4-((1S)-1-(2-(3-(difluoromethyl)-5,5-difluoro-3b,4,4a,5-tetrahydro-1H-cyclopropa[3,4]cyclopenta[1,2-c]pyrazol-1-yl)acetamido)-2-(3,5-difluorophenyl)ethyl)pyrimidin-5-yl)-2-fluorobenzamide] | > 50400 | 93 |  |
| NC(=O)c1cc(-c2cccnc2[C@H](Cc2cc(F)cc(F)c2)NC(=O)[C@@H]2CC[C@H](c3ccccc3)N2)ccc1F [Example 182, (2S,5R)—N—((S)-1-(3-(3-carbamoyl-4-fluorophenyl)pyridin-2-yl)-2-(3,5-difluorophenyl)ethyl)-5-phenylpyrrolidine-2-carboxamide] | 51000 | 8 |  |
| NC(=O)c1cc(-c2cccnc2[C@H](Cc2cc(F)cc(F)c2)NC(=O)[C@H]2CC[C@@H](c3ccccc3)N2)ccc1F [Example 183, (2R,5S)—N—((S)-1-(3-(3-carbamoyl-4-fluorophenyl)pyridin-2-yl)-2-(3,5-difluorophenyl)ethyl)-5-phenylpyrrolidine-2-carboxamide] | 35200 | 0 |  |
| Cc1[nH]nc(-c2ccccc2)c1CC(=O)N[C@@H](Cc1cc(F)cc(F)c1)c1ncccc1-c1ccc(F)c(C(N)=O)c1 [Example 184, (S)-5-(2-(2-(3,5-difluorophenyl)-1-(2-(5-methyl-3-phenyl-1H-pyrazol-4-yl)acetamido)ethyl)pyridin-3-yl)-2-fluorobenzamide] | 43200 | 5 |  |
| O=C(Cn1nc(C(F)F)c2c1C(F)(F)C1CC21)N[C@@H](Cc1cc(F)cc(F)c1)c1ncncc1-c1cccc2cnccc12 (stereo partly drawn) [Example 185C, 2-(3-(difluoromethyl)-5,5-difluoro-3b,4,4a,5-tetrahydro-1H-cyclopropa[3,4]cyclopenta[1,2-c]pyrazol-1-yl)-N—((S)-2-(3,5-difluorophenyl)-1-(5-(isoquinolin-5-yl)pyrimidin-4-yl)ethyl)acetamide] | 26500 | 94 |  |
| NC(=O)c1cc(-c2cccnc2[C@H](Cc2cc(F)cc(F)c2)NC(=O)[C@H]2COCCN2)ccc1F [Example 188, (R)—N—((S)-1-(3-(3-carbamoyl-4-fluorophenyl)pyridin-2-yl)-2-(3,5-difluorophenyl)ethyl)morpholine-3-carboxamide] | > 53000 | 0 |  |
| NC(=O)c1cc(-c2cccnc2[C@H](Cc2cc(F)cc(F)c2)NC(=O)Cn2nc(C(F)(F)F)c3c2CSC3)ccc1F [Example 189D, (S)-5-(2-(2-(3,5-difluorophenyl)-1-(2-(3-(trifluoromethyl)-4,6-dihydro-1H-thieno[3,4-c]pyrazol-1-yl)acetamido)ethyl)pyridin-3-yl)-2-fluorobenzamide] | 23300 | 48 |  |
| NC(=O)c1cccc(-c2cccnc2[C@H](Cc2cc(F)cc(F)c2)NC(=O)CC2C(=O)Nc3ccccc32)c1 (stereo partly drawn) [Example 191, 3-(2-((1S)-2-(3,5-difluorophenyl)-1-(2-(2-oxoindolin-3-yl)acetamido)ethyl)pyridin-3-yl)benzamide] | > 50900 |  | 19 |
| Cc1ccc2c(c1)C(CC(=O)N[C@@H](Cc1cc(F)cc(F)c1)c1ncccc1-c1ccc(F)c(C(N)=O)c1)C(=O)N2 (stereo partly drawn) [Example 193, 5-(2-((1S)-2-(3,5-difluorophenyl)-1-(2-(5-methyl-2-oxoindolin-3-yl)acetamido)ethyl)pyridin-3-yl)-2-fluorobenzamide] | > 53200 | 2 |  |
| NC(=O)c1cc(-c2cccnc2[C@H](Cc2cc(F)cc(F)c2)NC(=O)Cn2nc(C(F)(F)F)c3c2CS(=O)(=O)C3)ccc1F [Example 194, (S)-5-(2-(2-(3,5-difluorophenyl)-1-(2-(5,5-dioxido-3-(trifluoromethyl)-4,6-dihydro-1H-thieno[3,4-c]pyrazol-1-yl)acetamido)ethyl)pyridin-3-yl)-2-fluorobenzamide] | > 53200 | 11 |  |
| COCc1ccc(-c2cccnc2[C@H](Cc2cc(F)cc(F)c2)NC(=O)Cn2nc(C(F)F)c3c2C(F)(F)C2CC32)cc1 (stereo partly drawn) [Example 195, 2-(3-(difluoromethyl)-5,5-difluoro-3b,4,4a,5-tetrahydro-1H-cyclopropa[3,4]cyclopenta[1,2-c]pyrazol-1-yl)-N—((S)-2-(3,5-difluorophenyl)-1-(3-(4-(methoxymethyl)phenyl)pyridin-2-yl)ethyl)acetamide] | 23000 | 85 |  |
| NC(=O)c1cccc(-c2cccnc2[C@H](Cc2cc(F)cc(F)c2)NC(=O)CC2C(=O)Nc3ccc(F)cc32)c1 (stereo partly drawn) [Example 196, 3-(2-((1S)-2-(3,5-difluorophenyl)-1-(2-(5-fluoro-2-oxoindolin-3-yl)acetamido)ethyl)pyridin-3-yl)benzamide] | 29600 | 2 |  |
| NC(=O)c1cc(-c2ccc[n+]([O-])c2[C@H](Cc2cc(F)cc(F)c2)NC(=O)Cn2nc(C(F)(F)F)c3c2CCS(=O)(=O)C3)ccc1F [Example 197, (S)-3-(3-carbamoyl-4-fluorophenyl)-2-(2-(3,5-difluorophenyl)-1-(2-(5,5-dioxido-3-(trifluoromethyl)-6,7-dihydrothiopyrano[4,3-c]pyrazol-1(4H)-yl)acetamido)ethyl)pyridine-1-oxide] | > 53200 | 0 |  |
| NC(=O)c1cc(-c2cccnc2[C@H](Cc2cc(F)cc(F)c2)NC(=O)Cn2nc(C(F)F)c3c2CC2CC32)ccc1F (stereo partly drawn) [Example 198, 5-(2-((1S)-1-(2-(3-(difluoromethyl)-3b,4,4a,5-tetrahydro-1H-cyclopropa[3,4]cyclopenta[1,2-c]pyrazol-1-yl)acetamido)-2-(3,5-difluorophenyl)ethyl)pyridin-3-yl)-2-fluorobenzamide] | 45900 | 112 |  |
| NC(=O)c1cc(-c2cccnc2[C@H](Cc2cc(F)cc(F)c2)NC(=O)Cn2nc(C(F)(F)F)c3c2CC2C3C2(F)F)ccc1F (stereo partly drawn) [Example 199E, 5-(2-((1S)-1-(2-(4,4-difluoro-3-(trifluoromethyl)-3b,4,4a,5-tetrahydro-1H-cyclopropa[3,4]cyclopenta[1,2-c]pyrazol-1-yl)acetamido)-2-(3,5-difluorophenyl)ethyl)pyridin-3-yl)-2-fluorobenzamide] | 9520 | 18 |  |
| NC(=O)c1cc(-c2cccnc2[C@H](Cc2cc(F)cc(F)c2)NC(=O)Cn2nc3c(c2C(F)(F)F)CNC3)ccc1F [Example 200B, (S)-5-(2-(2-(3,5-difluorophenyl)-1-(2-(3-(trifluoromethyl)-5,6-dihydropyrrolo[3,4-c]pyrazol-2(4H)-yl)acetamido)ethyl)pyridin-3-yl)-2-fluorobenzamide] | > 53200 | 0 |  |
| NC(=O)c1cc(-c2cccnc2[C@H](Cc2cc(F)cc(F)c2)NC(=O)Cc2cc(=O)[nH]c3ccccc23)ccc1F [Example 201, (S)-5-(2-(2-(3,5-difluorophenyl)-1-(2-(2-oxo-1,2-dihydroquinolin-4-yl)acetamido)ethyl)pyridin-3-yl)-2-fluorobenzamide] | > 53200 | 8 |  |
